Test in all cases: relative viability (nuclei count vs DMSO), 5 days (fraction); higher = more cells survive
Compound in assay [1]: COc1cc2nc(N3CCCN(C)CC3)nc(NC3CCN(Cc4ccccc4)CC3)c2cc1OC + N=C(N)NC(=N)NCCc1ccccc1 [Phenformin] (partner 250 µM)
The procedure, abridged:
(§1)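 Values are medians from duplicate plates. Each reflects relative viability, defined as the nuclei count of treated wells over that of vehicle wells. Lung cancer cell lines in 1536-well plates were pin-tool dosed one day after seeding with one drug alone or with a fixed anchor-drug dose plus five library-drug doses (not always all listed) in √10 steps, then fixed, stained and imaged at 4× after 5 days.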

Compound in assay [2]: COc1cc2nc(N3CCCN(C)CC3)nc(NC3CCN(Cc4ccccc4)CC3)c2cc1OC + COc1cccc2cc(-c3nc([C@H]4CC[C@H](C(=O)O)CC4)n4ncnc(N)c34)[nH]c12 [OSI-027] (partner 0.5 µM)
Put shortly:
as §1

Compound in assay [3]: COc1cc2nc(N3CCCN(C)CC3)nc(NC3CCN(Cc4ccccc4)CC3)c2cc1OC + CC(C)C[C@H](NC(=O)[C@H](Cc1ccccc1)NC(=O)c1cnccn1)B(O)O [Bortezomib] (partner 0.002 µM)
Put shortly: as §1

Compound in the assay “AZD6482 + Foretinib”: Cc1cc([C@@H](C)Nc2ccccc2C(=O)O)c2nc(N3CCOCC3)cc(=O)n2c1 [AZD6482] + COc1cc2c(Oc3ccc(NC(=O)C4(C(=O)Nc5ccc(F)cc5)CC4)cc3F)ccnc2cc1OCCCN1CCOCC1 [Foretinib] (partner 0.25 µM)
The procedure, abridged: as §1

UMC-11: the relative viability in assay [1] (first compound 0.2 µM) came out at 0.322; in assay [1] (first compound 0.6325 µM) it was 0.346; in assay [1] (first compound 2 µM) it was 0.352; in assay [1] (first compound 6.325 µM), 0.243; in assay [2] (first compound 0.2 µM), 0.534; in assay [2] (first compound 0.6325 µM), 0.461. The relative viability in assay [2] (first compound 2 µM) turned out to be 0.398; in assay [2] (first compound 6.325 µM), 0.284; in assay [3] (first compound 0.2 µM), 0.737; in assay [3] (first compound 0.6325 µM), 0.778; in assay [3] (first compound 2 µM), 0.71; in assay [3] (first compound 6.325 µM), 0.594. For the same cell line, the relative viability in the assay with AZD6482 + Foretinib (first compound 0.08 µM) was 1.01; with AZD6482 + Foretinib (first compound 0.253 µM), 0.988; with AZD6482 + Foretinib (first compound 0.8 µM) it was 0.997; in the assay with AZD6482 + Foretinib (first compound 2.53 µM) it was 0.815; with AZD6482 + Foretinib (first compound 8 µM), 1.13.

The values above are taken from the supplement of paper PMC10307832.
